Laboratory results reported in US20050032688A1, “Use of angiotensin II fragments and analogs thereof in tissue repair” (University of Southern California, priority 1993, published 2005).
“Also recorded” adds a separate entry of the source. Where two headings read alike, the source gives them in different places. Ends that are not written are not given here.

Experiments:
[1] = test system: motility, stereotypy and learning of conditioned avoidance responses; conditions: injected in the lateral cerebral ventricle, rats; cited from earlier work
[2] = test system: porcine coronary artery rings; conditions: perhaps through nitric oxide; cited from earlier work
[3] = test system: porcine aortic endothelial cells; conditions: cited from earlier work
blood pressure [4] = conditions: intracerebroventricular infusion in the rat; concentrations 1000× higher than that of AII that increased blood pressure; cited from earlier work
water intake = conditions: injected into the anterior diencephalons in the rat; cited from earlier work
[5] = test system: full thickness dermal wounds; assay: Wound closure and granulation tissue in full thickness dermal wounds, carboxymethyl cellulose vehicle (Example 3); format: in vivo, Female Sprague Dawley rats; conditions: tested fragments of AII
Protocol: Female Sprague Dawley rats, 175-200 g, were obtained from Simonsen Laboratories, Gilroy, Calif. On the day of surgery, the rats received intramuscular ketamine/rompum anesthesia prior to preparation for surgery. The rats were shaved and scrubbed with betadine. Two 1.5×1.5 cm full thickness dermal wounds were created on the dorsal surface of the rat. Following excision of the skin, the size of the wound was outlined on a glass slide and the medicament was administered ini 100 μl 10% low viscosity carboxymethyl cellulose (Sigma). The test materials were administered in a randomized fashion; all materials were tested at 100 μg/wound. Controls were treated with vehicle only. After administration of the materials, the rats were bandaged and allowed to recover from anesthesia. On days 1-4 after surgery, the rats were treated with an additional 100 μg of peptide formulation. At days 2, 4, 7 and 9, the area of the skin wounds were measured under methoxyflurane anesthesia (commercially available as Metofane from Pittman-Moore, Mundelein, Ill.). The area of the wound was determined by: (1) tracing the wound shape onto graph paper (1×1 mm squares); (2) cutting out the shape; (3) weighing the paper and comparing the weight with a 1.5×1.5 cm paper cutout; and (4) counting the number of squares. In addition, on days 2, 4 and 7, the area of granulation tissue was similarly determined.

human astrocytes = conditions: cited from earlier work
[6] = test system: neurons in the paraventricular nucleus; conditions: cited from earlier work
blood pressure [7] = conditions: cited from earlier work
[8] = test system: rat isolated nodose ganglion; conditions: cited from earlier work
[9] = test system: rat glomerulus preparations; conditions: through the AT1 receptor; cited from earlier work
[10] = test system: porcine vascular smooth muscle cells; conditions: cited from earlier work
[11] = in contrast to AII; cited from earlier work
blood pressure [12] = conditions: in vivo; cited from earlier work
rat mesangial cells = conditions: through the AT1 receptor; cited from earlier work
wound tissue = conditions: application to wound tissue; cited from earlier work
rat adrenal medulla = conditions: cited from earlier work
[13] = test system: baroreceptor-heart-reflex; conditions: in vivo; cited from earlier work

**Q.** Which “motility, stereotypy and learning of conditioned avoidance responses (psychotropic activities)” value (“motility, stereotypy and learning” below) [1] does the source give for “Arg-Val-Tyr-Ile-His (RVYIH; printed: Arg-Val-Tyr-Ile-His) [AII(2-6)]” here?
**A.** The value was “not active”.

**Q.** For “Val-Tyr-Ile-His-Pro-Phe (VYIHPF) [AII(3-8)]”, which “dilation of coronary artery rings” value [2] is on record?
**A.** Its value is “not observed”.

**Q.** With “AI: a decapeptide called angiotensin I which is converted to angiotensin II (DRVYIHPFHL; Angiotensin-1; UniProt P01019 25-34, looked up)” as the substance, how does the “release of prostaglandin E2 and 12” value [3] read?
**A.** The value was “stimulated”.

**Q.** Which results are given for Ile-His-Pro-Phe (IHPF) [AII(5-8)]?
**A.** effect on blood pressure (blood pressure [4]): minimal effect; effect on water intake (water intake): only a slight effect

**Q.** For Asp-Arg-Val-Tyr (DRVY) [AII(1-4)], which “effect on water intake” value (water intake) is on record?
**A.** Its value is “only a slight effect”.

**Q.** For His-Pro-Phe (HPF) [AII(6-8)], which “effectiveness in wound healing” value [5] is on record?
**A.** The value was “not to be effective”.

**Q.** With Try-Ile-His-Pro-Phe (YIHPF) [AII(4-8)] as the substance, how does the “effect on blood pressure” value (blood pressure [4]) read?
**A.** Its value is “minimal effect”.

**Q.** And the “effect on water intake” value (water intake)?
**A.** Its value is “only a slight effect”.

**Q.** What about the “effectiveness in wound healing” value [5] of the same substance?
**A.** Its value is “not to be effective; also recorded: ineffective”.

**Q.** With “Asp-Arg-Val-Tyr-Ile-His-Pro (DRVYIHP) [AII(1-7)]” as the substance, how does the prostaglandin release (human astrocytes) read?
**A.** Its prostaglandin release is “increases”.

**Q.** What about the excitation of neurons [6] of the same substance?
**A.** The excitation of neurons was “weaker”.

**Q.** And the excitation of neurons ([6]; listed as Ang(1-7))?
**A.** The excitation of neurons was “excited”.

**Q.** And the “effect on water intake” value (water intake)?
**A.** Its value is “completely inactive”.

**Q.** And the “dose at which pressor effects on blood pressure occur, relative to AII” value (blood pressure [7]; depending upon the model tested and route of administration)?
**A.** The value was 10000-100000 times the dose of AII.

**Q.** What about the “depressor effect on blood pressure” value (blood pressure [7]; may be mediated through prostanoid synthesis) of the same substance?
**A.** Its value is “depressor effect”.

**Q.** What about the “dilation of coronary artery rings” value [2] of the same substance?
**A.** Its value is “dilates”.

**Q.** And the “depolarization of nodose ganglion” value [8]?
**A.** Its value is “does not”.

**Q.** And the “formation of cAMP in response to histamine, serotonin and parathyroid hormone” value [9]?
**A.** Its value is “did not have this effect”.

**Q.** What about the prostaglandin release [10] of the same substance?
**A.** Its prostaglandin release is “increases”.

**Q.** And the aldosterone release [11]?
**A.** The aldosterone release was “does not cause”.

**Q.** What about the catecholamine release [11] of the same substance?
**A.** Its catecholamine release is “does not cause”.

**Q.** And the dipsogenic effect [11]?
**A.** Its dipsogenic effect is “not dipsogenic”.

**Q.** What about the “amount required relative to AII to get a comparable pressor response” value (blood pressure [12]) of the same substance?
**A.** The value was “about 10000 ×”.

**Q.** What about the depressor effect (blood pressure [12]) of the same substance?
**A.** The depressor effect was “long depressor effect”.

**Q.** And the pressor effect (blood pressure [12])?
**A.** The pressor effect was “weak pressor”.

**Q.** What about the “release of prostaglandin E2 and 12” value [3] of the same substance?
**A.** The value was “stimulated”.

**Q.** And the choline production (rat mesangial cells)?
**A.** The choline production was “very weak effects”.

**Q.** For DRVYIH [AII(1-6)], which choline production (rat mesangial cells) is on record?
**A.** The choline production was “very weak effects”.

**Q.** What about the “motility, stereotypy and learning” value [1] of the same substance?
**A.** The value was “not active”.

**Q.** For “Asp-Arg-Val-Tyr-Ile-His-Pro-Phe (DRVYIHPF) [AII]”, which “rate of wound healing” value (wound tissue) is on record?
**A.** The value was “significantly increases”.

**Q.** And the prostaglandin release (human astrocytes)?
**A.** Its prostaglandin release is “increases”.

**Q.** What about the “release of intracellular Ca2+” value (human astrocytes) of the same substance?
**A.** Its value is “increases”.

**Q.** What about the excitation of neurons [6] of the same substance?
**A.** Its excitation of neurons is “excited”.

**Q.** And the “dilation of coronary artery rings” value [2]?
**A.** The value was “not observed”.

**Q.** And the “depolarization of nodose ganglion” value [8]?
**A.** Its value is “causes depolarization”.

**Q.** What about the “evoked neuronal norepinephrine release” value (rat adrenal medulla) of the same substance?
**A.** The value was “biphasic effect”.

**Q.** What about the “spontaneous neuronal norepinephrine release” value (rat adrenal medulla) of the same substance?
**A.** Its value is “increasing”.

**Q.** And the “sensitivity of the baroreceptor-heart-reflex” value [13]?
**A.** Its value is “enhances”.

**Q.** And the “formation of cAMP in response to histamine, serotonin and parathyroid hormone” value [9]?
**A.** Its value is “inhibited”.

**Q.** And the prostaglandin release [10]?
**A.** Its prostaglandin release is “increases”.

**Q.** And the “release of intracellular Ca2+” value [10]?
**A.** Its value is “increases”.

**Q.** And the “release of prostaglandin E2 and 12” value [3]?
**A.** Its value is “did not have this effect”.

**Q.** And the choline production (rat mesangial cells)?
**A.** The choline production was “stimulates”.

**Q.** And the “motility, stereotypy and learning” value [1]?
**A.** Its value is “increased”.

**Q.** With “Arg-Val-Tyr-Ile-His-Pro (RVYIHP) [AII(2-7)]” as the substance, how does the excitation of neurons [6] read?
**A.** Its excitation of neurons is “inactive”.

**Q.** For Val-Tyr-Ile-His-Pro (VYIHP) [AII(3-7)], which depressor effect (blood pressure [12]) is on record?
**A.** The depressor effect was “no depressor effect”.

**Q.** And the pressor effect (blood pressure [12])?
**A.** Its pressor effect is “less of a pressor effect than AII(1-7)”.
